{
  "source": "patent US11944601B2",
  "about": "“Applications of ellagic acid in preparation of immunomodulatory medicines for treatment of neuromyelitis optica or immune rejection after skin transplantation” (priority 2022, dated 2024)",
  "key": {"[1]": {"tested_on": "Th1, Th17 and Treg cells in the peripheral immune system", "test": "Skin transplantation model, spleen cells of receptor mice by flow cytometry", "type": "in vivo", "settings": "day 7, cultured 72 hours", "description": "(§1) The donor BALB/c mice were sacrificed, the dorsal hair was removed with a shaver. Appropriately sized skin grafts were cut, peeled off, washed, immersed in sterilized saline containing antibiotics for 5 minutes, and finally stored on ice for backup. The receptor C57BL/6 mice were intraperitoneally injected with 0.5% of pentobarbital sodium injection according to the body weight of 0.15 mL/20 g. After the mice were anesthetized, they were fixed on a surgical plate, the mid-dorsal parts of the mice body slightly to the lefts were selected as operation areas. Mice were shaved and disinfected with 75% alcohol to prepare graft beds. The prepared donor skin sheet was placed on the predetermined transplantation bed of recipient mice and then flattened. The skin patch was sutured to the transplant bed by discontinuous suture with 6-0 sutures. The recipient mice were administered therapeutic medicines from the day of surgery. […] The spleens of the receptor mice were taken on the 7th day to isolate single cells for flow cytometer detection. The supernatant of splenocytes was collected for enzyme-linked immunosorbent assay (ELISA)."}, "Th17 cells": {"tested_on": "Th17 cells", "test": "Th17 polarization of spleen cells in vitro, flow cytometry", "type": "cell-based, mice", "settings": "for polarization of Th17 cells: 3 days; for polarization of Th17 cells / Th1 cells (IFN-γ): flow cytometry; for inhibitory effect on Th17 / IL17 at 5 μM compared with the lower concentration: 5 μM vs 2.5 μM (EA) or 1 μM (URA)", "description": "(§2) Single-cell suspension of spleen isolated from normal female C57BL/6 mice (aged 8-10 weeks) was co-cultured with anti-CD3 (0.5 μg/mL), anti-CD28 (1 μg/mL), TGF-β (2 ng/mL), IL-6 (20 ng/mL), IL-1 β (10 ng/mL), anti-IL-4 (10 μg/mL) and anti-IFN-γ (10 μg/mL) for 3 days to induce differentiation into Th17 cells. Cells were cultured with anti-CD3 (0.5 μg/mL), anti-CD28 (1 μg/mL), TGF-β (2 ng/mL) and IL-2 (10 ng/ml) for 3 days to induce differentiation into Treg cells. Cytokines were detected by flow cytometry."}, "colitis mice": {"tested_on": "colitis mice", "test": "DSS-induced acute colitis in mice", "type": "in vivo", "settings": "100 mg/kg/d, 2.5% DSS 7 days", "description": "The mice were randomly divided into control group and EA treatment group. 2.5% (w/v) of dextran sodium sulfate (DSS) was added to drinking water continuously for 7 days to induce acute colitis, and mice in the treatment group were fed 100 mg/kg/d EA. During the experiment, mice were weighed regularly every day and the percentage change was calculated. In addition, the feces characteristics of mice were observed every day and divided into three grades according to the methods of Berberat et al. 1: normal, 2: increased stool viscosity and easily dispersed, 3: watery diarrhea. Moreover, hidden blood of mouse feces was measured by pyramidon method. If the mouse feces contained reddish-brown or bright red blood visible to the naked eye, it was determined as fecal blood. Finally, the disease activity index (DAI) of mice was calculated according to the scoring criteria of Berberat et al. The whole segment of colon from anus to the end of cecum of mice was taken, the length was measured and photographed for recording."}, "EAE mice [2]": {"tested_on": "EAE mice", "test": "EAE mice, clinical scores", "type": "in vivo", "settings": "for EAE clinical score / course of disease: administered from day 0 of immunization (prevention stage); for EAE clinical score / course of disease / EAE clinical score / development of EAE: EA intraperitoneally, URA 25 mg/kg"}, "[3]": {"tested_on": "NMO-IgG induced cerebral lesion in mice", "test": "NMO-IgG induced cerebral lesion in mice, AQP4 and MBP staining of brain slices", "type": "in vivo", "settings": "2 mg/kg/d from three days before surgery; fifth day of modeling", "source_text": "Female C57BL/6 mice aged 6-8 weeks were purchased from Air Force Military Medical University (Xi'an, China). Mice were fed under standard light and temperature conditions. All experimental procedures and protocols were approved by the institutional animal ethics Committee of Shaanxi Normal University and carried out in accordance with the approved institutional guidelines and regulations.\nWO mice were randomly divided into control group and EA group. In order to induce WO, mice were first anesthetized with 10% (w/v) of chloral hydrate and installed on a brain stereotactic apparatus (RWD Life Science), then the mouse scalp was cut along the midline, a small hole with a diameter of 1 mm was drilled on the skull 2 mm on the right side of the anterior fontanelle, and finally 5 μL microinjector (Hamilton) was inserted 3 mm deep and 2 μL of NMO-IgG and 3 μL of complement were injected at a rate of 1 μL/min. EA (2 mg/kg/d) and control solvents were administered to WO mice three days before surgery.\nThe mice were sacrificed on the fifth day of modeling. The brain tissue was removed from the mice and fixed in 4% (w/v) of paraformaldehyde. The frozen sections were stained with AQP4 and MBP."}, "Treg cells": {"tested_on": "Treg cells", "test": "Treg polarization in vitro, flow cytometry", "type": "cell-based, mice", "settings": "0.5-2 μM, 3 days", "description": "as §2"}, "EAE mice [4]": {"tested_on": "EAE mice", "test": "EAE mice, spinal cord pathological sections (H&E, LFB, MBP staining)", "type": "in vivo", "settings": "for demyelination of white matter of spinal cord (LFB) / infiltration of spinal cord inflammatory cells (H&E): day 20 p.i., EA lumbosacral, URA cervical enlargement of spinal cord"}, "IFN-γ and IL-17": {"tested_on": "IFN-γ and IL-17", "test": "Skin transplantation model, ELISA of splenocyte culture supernatant", "type": "in vivo, mice", "description": "as §1"}, "[5]": {"tested_on": "skin transplantation model", "test": "Skin transplantation model, H&E staining of skin grafts", "type": "in vivo", "settings": "BALB/c skin on C57BL/6 mice"}, "EAE mice [6]": {"tested_on": "EAE mice", "test": "EAE mice, CNS-infiltrating mononuclear cells by flow cytometry", "type": "in vivo", "description": "EAE mice were randomly divided into EA groups and URA groups. EA groups were divided into blank control group, fingolimod (FTY-720) positive control group (0.1 mg/kg) and EA administration group (0.1 mg/kg). URA groups were divided into blank control group and URA administration group (25 mg/kg). To induce EAE, mice were immunized at two sites on the back with 200 μg of myelin oligodendrocyte glycoprotein peptide 35-55 (MOG35-55) (Genescript) in 200 μL of emulsion containing 50% complete Freund's adjuvant with 5 mg/ml Mycobacterium tuberculosis H37Ra (Difco). All mice were i.p. injected with 200 ng pertussis toxin (Sigma-Aldrich) in PBS on days 0 and 2 postimmunization (p.i.). Ellagic acid (EA) and its metabolic derivative URA were purchased from Ark Pharm, Inc and respectively administered to EAE mice on the day of immunization, the 11th day p.i and the 17th day p.i.\nMice were sacrificed at day 20 p.i. Approximately 0.5 cm of the lumbosacral enlarged spinal cord was removed from the sacrificed mouse and fixed in 4% (w/v) paraformaldehyde. […]\nFor flow cytometry surface marker staining, the cells were incubated with surface-stained fluorescent microsphere-coupled antibodies or isotype control antibodies on ice for 30 min. […] Data were further detected by flow cytometry and analyzed by Flowjo software (Treestar, Ashland, OR)."}, "[7]": {"tested_on": "IL-17 family-related genes", "test": "RT-qPCR of Th17-related genes in naïve CD4+ T cells under Th17 polarizing conditions", "type": "cell-based, mice", "settings": "4 h, vs PBS", "description": "Total RNA was extracted by using RNAprep Pure Cell/Tissue Kit (TIANGEN) and then reverse transcribed with Hiscript QRT Supermix (Vazyme) according to the manufacturer's instructions. mRNA expression was determined by real-time quantitative PCR using 2×ChamQ™ SYBR® qPCR Master Mix (Vazyme). Data was quantitatively analyzed on Roche Molecular Biochemicals Light Cycler Software Version 3.5. Mouse GAPDH gene was used as endogenous control for sample normalization."}, "[8]": {"settings": "administered from onset stage (day 11 p.i.)"}, "[9]": {"settings": "administered from peak period (day 17 p.i.)"}},
  "data": [
    {"smiles": "O=c1oc2c(O)c(O)cc3c(=O)oc4c(O)c(O)cc1c4c23", "note": "[EA, ellagic acid]", "values": [
      {"measurement": "Th1 inflammatory cells", "setting": "[1]", "value": "significantly inhibited"},
      {"measurement": "Th17 inflammatory cells", "setting": "[1]", "value": "significantly inhibited"},
      {"measurement": "proportion of anti-inflammatory cell Treg", "setting": "[1]", "value": "increased"},
      {"measurement": "polarization of Th17 cells", "setting": "Th17 cells; 2.5 μM", "value": "significantly inhibited"},
      {"measurement": "inhibitory effect on Th17 / IL17 at 5 μM compared with the lower concentration", "setting": "Th17 cells", "value": "better"},
      {"measurement": "polarization of Th17 cells", "setting": "Th17 cells; 5 μM", "value": "significantly inhibited"},
      {"measurement": "colon length", "setting": "colitis mice", "value": "significantly restored"},
      {"measurement": "DAI score", "setting": "colitis mice; vs DSS control group", "value": "decreased significantly"},
      {"measurement": "percentage of weight loss", "setting": "colitis mice; vs DSS control group", "value": "significantly lower"},
      {"measurement": "therapeutic effect in EAE compared with fingolimod (FTY-720)", "setting": "EAE mice [2]; EA 0.1 mg/kg vs FTY-720 0.1 mg/kg", "value": "equivalent"},
      {"measurement": "EAE clinical score / course of disease", "setting": "EAE mice [2]", "value": "inhibited the course of disease"},
      {"measurement": "EAE clinical score / development of EAE", "setting": "EAE mice [2]; [8]", "value": "significantly inhibited"},
      {"measurement": "EAE clinical score / development of EAE", "setting": "EAE mice [2]; [9]", "value": "significantly inhibited"},
      {"measurement": "progress of EAE disease", "setting": "EAE mice [2]; oral administration from day 0 of immunization, dosage 250 times that of injection", "value": "effectively alleviate the progress of the disease"},
      {"measurement": "AQP4 protein loss rate", "setting": "[3]", "value": "lower than that in control group"},
      {"measurement": "degree of demyelination (MBP)", "setting": "[3]", "value": "decreased"},
      {"measurement": "polarization of naïve CD4+T towards Treg", "setting": "Treg cells", "value": "promote the polarization of naïve CD4+T towards Treg in a dose-dependent manner"},
      {"measurement": "demyelination of white matter of spinal cord (LFB)", "setting": "EAE mice [4]", "value": "significantly attenuated"},
      {"measurement": "infiltration of spinal cord inflammatory cells (H&E)", "setting": "EAE mice [4]", "value": "significantly attenuated"},
      {"measurement": "content of IFN-γ in supernatant of splenocytes", "setting": "IFN-γ and IL-17", "value": "significantly reduced"},
      {"measurement": "content of IL-17 in supernatant of splenocytes", "setting": "IFN-γ and IL-17", "value": "significantly reduced"},
      {"measurement": "effect on IFN-γ and IL-17 content compared with CsA", "setting": "IFN-γ and IL-17", "value": "better than that of CsA"},
      {"measurement": "infiltration of inflammatory cells in the grafted skin", "setting": "[5]", "value": "significantly inhibited"},
      {"measurement": "absolute number of CD45+, CD45+CD4+, CD4+IL-17+, CD4+IFN-γ+ and CD4+GM-CSF+ cells infiltrating into the CNS", "setting": "EAE mice [6]", "value": "significantly reduced"},
      {"measurement": "absolute number of pro-inflammatory microglia and macrophages infiltrating into CNS (CD45high+CD11b+, CD45low+CD11b+, CD11b+MHC II+, CD11b+TNF-α+, CD11b+Nos2+)", "setting": "EAE mice [6]", "value": "decreased"}
    ]},
    {"smiles": "O=c1oc2cc(O)ccc2c2ccc(O)cc12", "note": "[URA, urolithin A]", "values": [
      {"measurement": "expression level of IL-17 family-related genes", "setting": "[7]", "value": "decreased"},
      {"measurement": "expression of Foxp3", "setting": "[7]", "value": "promoted the expression of Foxp3 to a certain extent"},
      {"measurement": "dose dependence of inhibition on IFN-γ", "setting": "Th17 cells; 1 μM and 5 μM", "value": "no dose-dependent inhibition"},
      {"measurement": "polarization of Th17 cells", "setting": "Th17 cells; 1 μM", "value": "significantly inhibited"},
      {"measurement": "Th1 cells (IFN-γ)", "setting": "Th17 cells; 1 μM", "value": "significantly inhibited"},
      {"measurement": "inhibitory effect on Th17 / IL17 at 5 μM compared with the lower concentration", "setting": "Th17 cells", "value": "more significantly"},
      {"measurement": "polarization of Th17 cells", "setting": "Th17 cells; 5 μM", "value": "significantly inhibited"},
      {"measurement": "Th1 cells (IFN-γ)", "setting": "Th17 cells; 5 μM", "value": "significantly inhibited"},
      {"measurement": "EAE clinical score / course of disease", "setting": "EAE mice [2]", "value": "reduced the clinical scores"},
      {"measurement": "EAE clinical score / development of EAE", "setting": "EAE mice [2]; [8]", "value": "reduced the clinical scores"},
      {"measurement": "EAE clinical score / development of EAE", "setting": "EAE mice [2]; [9]", "value": "reduced the clinical scores"},
      {"measurement": "proportion of intact myelin sheath in the spinal cord (MBP)", "setting": "EAE mice [4]; compared with control mice", "value": "significantly increased"},
      {"measurement": "demyelination of white matter of spinal cord (LFB)", "setting": "EAE mice [4]", "value": "significantly relieved"},
      {"measurement": "infiltration of spinal cord inflammatory cells (H&E)", "setting": "EAE mice [4]", "value": "significantly relieved"}
    ]}
  ]
}
